Assay results: US8546608B2, “Proteasome inhibitors and methods of using the same” (Cephalon, Inc., priority 2003, dated 2013)

Legend:
[1] = target: T1, 20S Human Erythrocyte Proteasome (HEP) (Homo sapiens, UniProt P20618+P28074); test: Chymotrypsin-like activity of 20S Human Erythrocyte Proteasome (HEP), IC50 determination; format: biochemical; conditions: assay of Example C, inhibition of HEP
T1 construct: 20S Human Erythrocyte Proteasome (HEP), purchased from Immatics Biotechnologies Inc; purchased Immatics Biotechnologies Inc., Tübingen, Germany; host or cells: human erythrocytes (natural source)
Method in brief: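 20S proteasome at 0.2 μg/mL (about 0.6 nM catalytic sites) in 20 mM Tris with 0.04% SDS, preincubated 15 min at 37° C with inhibitor before Suc-LLVY-AMC (100 μM final). AMC fluorescence read in the linear range; triplicates, IC50 from concentration series.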

[2] = target: T2, proteasome in Molt-4 cells (human leukemia) (Homo sapiens, UniProt P20618+P28074); format: cell-based; conditions: assay of Example E, inhibition of MOLT4; read-out: MOLT4 (EC50)
T2 sequence (P28074 60-263): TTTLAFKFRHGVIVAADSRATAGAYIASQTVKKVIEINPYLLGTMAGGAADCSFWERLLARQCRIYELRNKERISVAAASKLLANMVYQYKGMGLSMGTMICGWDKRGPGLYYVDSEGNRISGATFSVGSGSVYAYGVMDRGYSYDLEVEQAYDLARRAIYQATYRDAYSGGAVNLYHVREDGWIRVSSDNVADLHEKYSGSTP
T2 sequence (P20618 29-241): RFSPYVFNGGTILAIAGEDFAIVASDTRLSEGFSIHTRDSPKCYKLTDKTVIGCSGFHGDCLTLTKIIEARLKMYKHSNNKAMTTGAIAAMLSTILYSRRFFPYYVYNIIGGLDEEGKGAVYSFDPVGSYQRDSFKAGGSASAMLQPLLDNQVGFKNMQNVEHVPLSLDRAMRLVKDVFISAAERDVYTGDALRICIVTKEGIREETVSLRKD
Method in brief: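 Intact Molt-4 cells (6×10^6 cells/mL) in HEPES-buffered saline were preincubated with inhibitor 15 min at 37 °C, then given cell-permeable MeOSuc-FLF-AFC at 25 μM final.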

`CC(C)C[C@H](NC(=O)[C@H](CCCNC(=N)N[N+](=O)[O-])NC(=O)/C=C/c1ccc(Br)cc1)B1O[C@@H]2C[C@@H]3C[C@@H](C3(C)C)[C@]2(C)O1` [D.3.92, (E)-3-(4-Bromophenyl)acrylamide,N-[(1S)-1-[[[(1R)-1-[(3aS,4S,6S,7aR)-hexahydro-3a,5,5-trimethyl-4,6-methano-1,3,2-benzodioxaborol-2-yl]-3-methylbutyl]amino]carbonyl]-4-[[imino(nitroamino)methyl]amino]butyl]] was tested. Which IC50 [1] did it give?
Its IC50 is < 10 nM.

And the EC50 [2]?
Its EC50 is < 200 nM.

What does the source list for `COc1ccc2cc([C@H](C)C(=O)N[C@@H](CCCNC(=N)N[N+](=O)[O-])C(=O)N[C@@H](CC(C)C)B3O[C@@H]4C[C@@H]5C[C@@H](C5(C)C)[C@]4(C)O3)ccc2c1` [D.3.93, (2S)-2-(6-Methoxynaphthalen-2-yl)-propanamide,N-[(1S)-1-[[[(1R)-1-[(3aS,4S,6S,7aR)-hexahydro-3a,5,5-trimethyl-4,6-methano-1,3,2-benzodioxaborol-2-yl]-3-methylbutyl]amino]carbonyl]-4-[[imino(nitroamino)methyl]amino]butyl]]?
IC50 [1]: < 10 nM; EC50 [2]: < 200 nM

How did the IC50 [1] turn out when `COc1ccc(C(=O)N[C@@H](CCCNC(=N)N[N+](=O)[O-])C(=O)N[C@@H](CC(C)C)B2O[C@@H]3C[C@@H]4C[C@@H](C4(C)C)[C@]3(C)O2)cc1F` [D.3.94, 3-Fluoro-4-methoxybenzamide,N-[(1S)-1-[[[(1R)-1-[(3aS,4S,6S,7aR)-hexahydro-3a,5,5-trimethyl-4,6-methano-1,3,2-benzodioxaborol-2-yl]-3-methylbutyl]amino]carbonyl]-4-[[imino(nitroamino)methyl]amino]butyl]] was run?
The IC50 was < 10 nM.

And the EC50 [2]?
Its EC50 is < 200 nM.

For `CCCCCC/C=C/C(=O)N[C@@H](CCCNC(=N)N[N+](=O)[O-])C(=O)N[C@@H](CC(C)C)B1O[C@@H]2C[C@@H]3C[C@@H](C3(C)C)[C@]2(C)O1` [D.3.96, Non-2-enoic acid amide,N-[(1S)-1-[[[(1R)-1-[(3aS,4S,6S,7aR)-hexahydro-3a,5,5-trimethyl-4,6-methano-1,3,2-benzodioxaborol-2-yl]-3-methylbutyl]amino]carbonyl]-4-[[imino(nitroamino)methyl]amino]butyl]], which IC50 [1] is on record?
The IC50 was < 10 nM.

And the EC50 [2]?
The EC50 was < 200 nM.

`CC(C)C[C@H](NC(=O)[C@H](CCCNC(=N)N[N+](=O)[O-])NC(=O)/C=C/c1ccc2ccccc2c1)B1O[C@@H]2C[C@@H]3C[C@@H](C3(C)C)[C@]2(C)O1` [D.3.97, (E)-3-(Naphthalen-2-yl)acrylamide,N-[(1S)-1-[[[(1R)-1-[(3aS,4S,6S,7aR)-hexahydro-3a,5,5-trimethyl-4,6-methano-1,3,2-benzodioxaborol-2-yl]-3-methylbutyl]amino]carbonyl]-4-[[imino(nitroamino)methyl]amino]butyl]] was tested. Which IC50 [1] did it give?
Its IC50 is < 10 nM.

And the EC50 [2]?
The EC50 was < 200 nM.

What does the source list for `CCCCCCCCCCCCCC(=O)N[C@@H](CCCNC(=N)N[N+](=O)[O-])C(=O)N[C@@H](CC(C)C)B1O[C@@H]2C[C@@H]3C[C@@H](C3(C)C)[C@]2(C)O1` [D.3.102, Tetradecanamide,N-[(1S)-1-[[[(1R)-1-[(3aS,4S,6S,7aR)-hexahydro-3a,5,5-trimethyl-4,6-methano-1,3,2-benzodioxaborol-2-yl]-3-methylbutyl]amino]carbonyl]-4-[[imino(nitroamino)methyl]amino]butyl]]?
IC50 [1]: < 10 nM; EC50 [2]: 200 to 2000 nM

`CC(C)C[C@H](NC(=O)[C@H](CCCNC(=N)N[N+](=O)[O-])NC(=O)CCc1c[nH]c2ccccc12)B1O[C@@H]2C[C@@H]3C[C@@H](C3(C)C)[C@]2(C)O1` [D.3.103, 3-(1H-Indol-3-yl)-propanamide,N-[(1S)-1-[[[(1R)-1-[(3aS,4S,6S,7aR)-hexahydro-3a,5,5-trimethyl-4,6-methano-1,3,2-benzodioxaborol-2-yl]-3-methylbutyl]amino]carbonyl]-4-[[imino(nitroamino)methyl]amino]butyl]] was tested. Which IC50 [1] did it give?
Its IC50 is < 10 nM.

And the EC50 [2]?
Its EC50 is 200 to 2000 nM.

Which IC50 [1] does the source give for `CC(C)C[C@H](NC(=O)[C@H](CCCNC(=N)N[N+](=O)[O-])NC(=O)CCCOc1ccccc1)B1O[C@@H]2C[C@@H]3C[C@@H](C3(C)C)[C@]2(C)O1` [D.3.104] here?
Its IC50 is < 10 nM.

And the EC50 [2]?
Its EC50 is 200 to 2000 nM.

For `CC(C)C[C@H](NC(=O)[C@H](CCCNC(=N)N[N+](=O)[O-])NC(=O)CCCC(=O)c1ccccc1)B1O[C@@H]2C[C@@H]3C[C@@H](C3(C)C)[C@]2(C)O1` [D.3.105, 5-Oxo-5-phenyl-pentanamide,N-[(1S)-1-[[[(1R)-1-[(3aS,4S,6S,7aR)-hexahydro-3a,5,5-trimethyl-4,6-methano-l,3,2-benzodioxaborol-2-yl]-3-methylbutyl]amino]carbonyl]-4-[[imino(nitroamino)methyl]amino]butyl]], which IC50 [1] is on record?
Its IC50 is < 10 nM.

And the EC50 [2]?
Its EC50 is 200 to 2000 nM.

With `CC(C)C[C@H](NC(=O)[C@H](CCCNC(=N)N[N+](=O)[O-])NC(=O)CCCCCCCc1ccccc1)B1O[C@@H]2C[C@@H]3C[C@@H](C3(C)C)[C@]2(C)O1` [D.3.117, 8-Phenyl-octanamide,N-[(1S)-1-[[[(1R)-1-[(3aS,4S,6S,7aR)-hexahydro-3a,5,5-trimethyl-4,6-methano-1,3,2-benzodioxaborol-2-yl]-3-methylbutyl]amino]carbonyl]-4-[[imino(nitroamino)methyl]amino]butyl]] as the compound, how does the IC50 [1] read?
Its IC50 is < 10 nM.

And the EC50 [2]?
The EC50 was < 200 nM.

What does the source list for `CCCCCCCCCCCCC(=O)N[C@@H](CCCNC(=N)N[N+](=O)[O-])C(=O)N[C@@H](CC(C)C)B1O[C@@H]2C[C@@H]3C[C@@H](C3(C)C)[C@]2(C)O1` [D.3.119, Tridecanamide,N-[(1S)-1-[[[(1R)-1-[(3aS,4S,6S,7aR)-hexahydro-3a,5,5-trimethyl-4,6-methano-1,3,2-benzodioxaborol-2-yl]-3-methylbutyl]amino]carbonyl]-4-[[imino(nitroamino)methyl]amino]butyl]]?
IC50 [1]: < 10 nM; EC50 [2]: < 200 nM

Which results are given for `CC(C)C[C@H](NC(=O)[C@H](CCCNC(=N)N[N+](=O)[O-])NC(=O)CCCNC(=O)OCC1c2ccccc2-c2ccccc21)B1O[C@@H]2C[C@@H]3C[C@@H](C3(C)C)[C@]2(C)O1` [D.3.122, [[[(9H-fluoren-9-yl)methoxy]carbonyl]amino]butanamide, N-[(1S)-1-[[[(1R)-1-[(3aS,4S,6S,7aR)-hexahydro-3a,5,5-trimethyl-4,6-methano-1,3,2-benzodioxaborol-2-yl]-3-methylbutyl]amino]carbonyl]-4-[[imino(nitroamino)methyl]amino]butyl]]?
IC50 [1]: < 10 nM; EC50 [2]: < 200 nM

With `CC(C)C[C@H](NC(=O)[C@H](CCCNC(=N)N[N+](=O)[O-])NC(=O)CCCCc1ccc(F)cc1)B1O[C@@H]2C[C@@H]3C[C@@H](C3(C)C)[C@]2(C)O1` [D.3.124, 5-(4-Fluorophenyl)-pentanamide,N-[(1S)-1-[[[(1R)-1-[(3aS,4S,6S,7aR)-hexahydro-3a,5,5-trimethyl-4,6-methano-1,3,2-benzodioxaborol-2-yl]-3-methylbutyl]amino]carbonyl]-4-[[imino(nitroamino)methyl]amino]butyl]] as the compound, how does the IC50 [1] read?
The IC50 was < 10 nM.

And the EC50 [2]?
Its EC50 is < 200 nM.

What does the source list for `CC(C)C[C@H](NC(=O)[C@H](CCCNC(=N)N[N+](=O)[O-])NC(=O)CCCCCCC(=O)c1ccccc1)B1O[C@@H]2C[C@@H]3C[C@@H](C3(C)C)[C@]2(C)O1` [D.3.125, 8-Oxo-8-phenyloctanamide,N-[(1S)-1-[[[(1R)-1-[(3aS,4S,6S,7aR)-hexahydro-3a,5,5-trimethyl-4,6-methano-l,3,2-benzodioxaborol-2-yl]-3-methylbutyl]amino]carbonyl]-4-[[imino(nitroamino)methyl]amino]butyl]]?
IC50 [1]: < 10 nM; EC50 [2]: < 200 nM
